# Data from US7273880B2, “Selective NPY (Y5) antagonists” (H. Lunbeck A/S, priority 1999, dated 2007).
# Read-outs that look alike come from different tables or passages of the source.
# Columns and labels:
# [1] = molecular target: T1, human Y5 receptor (h NPY-5) (Homo sapiens, UniProt Q15761); experiment: Functional assay: radioimmunoassay of cAMP; format: cell-based; conditions: functional antagonism, forskolin-stimulated cAMP, cells stably transfected with human Y5
# T1 construct: expressed in transfected cells; host or cells: mouse fibroblast LM(tk-) cells, e.g. L-hY5-7 (ATCC CRL-11995)
# T1 sequence (Q15761 1-445): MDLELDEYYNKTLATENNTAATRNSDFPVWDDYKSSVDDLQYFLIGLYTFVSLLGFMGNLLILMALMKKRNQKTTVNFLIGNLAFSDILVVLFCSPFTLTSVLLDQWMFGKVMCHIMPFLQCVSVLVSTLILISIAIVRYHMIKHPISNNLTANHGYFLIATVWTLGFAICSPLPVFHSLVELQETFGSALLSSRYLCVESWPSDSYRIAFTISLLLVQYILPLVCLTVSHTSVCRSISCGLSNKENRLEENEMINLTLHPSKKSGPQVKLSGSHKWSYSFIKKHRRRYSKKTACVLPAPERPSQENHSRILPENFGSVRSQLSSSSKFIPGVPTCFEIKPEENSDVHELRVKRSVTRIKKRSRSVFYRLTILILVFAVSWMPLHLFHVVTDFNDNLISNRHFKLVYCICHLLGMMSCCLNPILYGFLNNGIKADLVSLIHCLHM
# Protocol: LM(tk-) cells stably transfected with the human Y5 receptor were routinely converted from an adherent monolayer to a viable suspension. Adherent cells were harvested with trypsin at the point of confluence, resuspended in a minimal volume of complete DMEM for a cell count, and further diluted to a concentration of 10^6 cells/ml in suspension media (10% bovine calf serum, 10% 10× Medium 199 (Gibco), 9 mM NaHCO3, 25 mM glucose, 2 mM L-glutamine, 100 units/ml penicillin/100 μg/ml streptomycin, and 0.05% methyl cellulose). The cell suspension was maintained in a shaking incubator at 37° C., 5% CO2 for 24 hours. Membranes harvested from cells grown in this manner may be stored as large, uniform batches in liquid nitrogen. Alternatively, cells may be returned to adherent cell culture in complete DMEM by distribution into 96-well microtiter plates coated with poly-D-lysine (0.01 mg/ml) followed by incubation at 37° C., 5% CO2 for 24 hours. Cells prepared in this manner yielded a robust and reliable NPY-dependent response in cAMP radio-immunoassays as further described hereinbelow.
# Stably transfected cells were seeded into 96-well microtiter plates and cultured until confluent. To reduce the potential for receptor desensitization, the serum component of the media was reduced to 1.5% for 4 to 16 hours before the assay. Cells were washed in Hank's buffered saline, or HBS (150 mM NaCl, 20 mM HEPES, 1 mM CaCl2, 5 mM KCl, 1 mM MgCl2, and 10 mM glucose) supplemented with 0.1% bovine serum albumin plus 5 mM theophylline and pre-equilibrated in the same solution for 20 min at 37° C. in 5% CO2. Cells were then incubated 5 min with 10 μM forskolin and various concentrations of receptor-selective ligands. The assay was terminated by the removal of HBS and acidification of the cells with 100 mM HCl. Intracellular cAMP was extracted and quantified with a modified version of a magnetic bead-based radioimmunoassay (Advanced Magnetics, Cambridge, Mass.). The final antigen/antibody complex was separated from free ^125I-cAMP by vacuum filtration through a PVDF filter in a microtiter plate (Millipore, Bedford, Mass.). Filters were punched and counted for ^125I in a Packard gamma counter. Binding data were analyzed using nonlinear regression and statistical techniques available in the GraphPAD Prism package (San Diego, Calif.).
# [2] = molecular target: T2, human Y5 receptor (hNPY-5) (Homo sapiens, UniProt Q15761); experiment: Radioligand binding to membranes, cloned human Y5 receptor
# T2 construct: expressed in transfected cells; host or cells: mouse fibroblast LM(tk-) cells, e.g. L-hY5-7 (ATCC CRL-11995)
# T2 sequence (Q15761 1-445): T1 sequence (Q15761 1-445)
# Outline: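 Competition binding on membranes from stably transfected 293 or LM(tk-) cells, with 0.08 nM ¹²⁵I-PYY in pH 7.4 HEPES buffer plus 0.1% BSA, 120 min at 30 °C, filtration and counting. Nonspecific binding defined by 300 nM human NPY, or 100 nM human PP for Y4; nonlinear regression.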
# [3] = molecular target: hNPY-1,2,4 (human Y1, Y2, Y4 receptors); experiment: Radioligand binding to membranes, cloned human Y1, Y2 and Y4 receptors; conditions: one bound given for all three
# Protocol: Binding of the compounds of the present invention to human Y1, Y2, Y4, and Y5 receptors was evaluated using stably transfected 293 or LM(tk-) cells as described above. Stably transfected cell lines which may be used for binding assays include, for example, for the human Y1 receptor, 293-hY1-5 (deposited Jun. 4, 1996, under ATCC Accession No. CRL-12121), for the human Y2 receptor, 293-hY2-10 (deposited Jan. 27, 1994, under ATCC Accession No. CRL-11537), for the human Y4 receptor, L-hY4-3 (deposited Jan. 11, 1995, under ATCC Accession No. CRL-11779), and for human Y5 receptor, L-hY5-7 (deposited Nov. 15, 1995, under ATCC Accession No. CRL-11995). These cell lines were deposited with the American Type Culture Collection (ATCC), 10801 University Blvd., Manassas, Va. 20110-2209, U.S.A. under the provisions of the Budapest Treaty for the International Recognition of the Deposit of Microorganisms for the Purposes of Patent Procedure.
# Membranes were harvested from COS-7 cells 48 hours after transient transfection. Adherent cells were washed twice in ice-cold phosphate buffered saline (138 mM NaCl, 8.1 mM Na2HPO4, 2.5 mM KCl, 1.2 mM KH2PO4, 0.9 mM CaCl2, 0.5 mM MgCl2, pH 7.4) and lysed by sonication in ice-cold sonication buffer (20 mM Tris-HCl, 5 mM EDTA, pH 7.7). Large particles and debris were cleared by low speed centrifugation (200×g, 5 min, 4° C.). Membranes were collected from the supernatant fraction by centrifugation (32,000×g, 18 min, 4° C.), washed with ice-cold hypotonic buffer, and collected again by centrifugation (32,000×g, 18 min, 4° C.). The final membrane pellet was resuspended by sonication into a small volume of ice-cold binding buffer (˜1 ml for every 5 plates: 10 mM NaCl, 20 mM HEPES, 0.22 mM KH2PO4, 1.26 mM CaCl2, 0.81 mM MgSO4, pH 7.4). Protein concentration was measured by the Bradford method (Bradford, 1976) using Bio-Rad Reagent, with bovine serum albumin as a standard. Membranes were held on ice for up to one hour and used fresh, or flash-frozen and stored in liquid nitrogen.
# Membranes were prepared similarly from 293, LM(tk-), and NIH-3T3 cells. To prepare membranes from baculovirus infected cells, 2×10^7 Sf21 cells were grown in 150 mm tissue culture dishes and infected with a high-titer stock of hY5BB3. Cells were incubated for 2-4 days at 27° C., no CO2 before harvesting and membrane preparation as described above.
# Membrane suspensions were diluted in binding buffer supplemented with 0.1% bovine serum albumin to yield an optimal membrane protein concentration so that ^125I-PYY (or alternative radioligand such as ^125I-NPY, ^125I-PYY3-36, or ^125I-[Leu^31Pro^34]PYY) bound by membranes in the assay was less than 10% of ^125I-PYY (or alternative radioligand) delivered to the sample (100,000 dpm/sample=0.08 nM for competition binding assays). ^125I-PYY (or alternative radioligand) and peptide competitors were also diluted to desired concentrations in supplemented binding buffer. Individual samples were then prepared in 96-well polypropylene microtiter plates by mixing 125I-PYY (25 μL) (or alternative radioligand), competing peptides or supplemented binding buffer (25 μL), and finally, membrane suspensions (200 μL). Samples were incubated in a 30° C. water bath with constant shaking for 120 min. Incubations were terminated by filtration over Whatman GF/C filters (pre-coated with 1% polyethyleneimine and air-dried before use), followed by washing with 5 mL of ice-cold binding buffer. Filter-trapped membranes were impregnated with MeltiLex solid scintillant (Wallac, Turku, Finland) and counted for ^125I in a Wallac Beta-Plate Reader. Alternatively, incubations were carried out in GF/C filter plates (pre-coated with 1% polyethyleneimine and air-dried before use), followed by vacuum filtration and three washes of 300 μL of ice-cold binding buffer. 50 μL of UltimaGold (Packard) scintillant were added and counted for ^125I in a Wallac MicroBeta Trilux. […]
# [4] = binding Ki as repeated in Table 4, read-out: Ki (h NPY-5)
# [5] = cloned human NPY Y5 receptor, radioligand competition binding, Tables 1-3, read-out: Ki, nM hNPY-5
Kb [1],"Ki [2, 4]","Ki [2, 5]",Ki [3],melting point,Compound
39.8 nM,32.9 nM,33 nM,–,–,"COCC(=O)NC[C@H]1CC[C@H](Nc2nc3c(s2)CCCc2ccc(F)cc2-3)CC1 [Example 80, N1-({4-[(9-fluoro-5,6-dihydro-4H-benzo[6,7]-cyclohepta-[d][1,3]thiazol-2-yl)amino]cyclohexyl}-methyl)-2-methoxyacetamide]"
15.8 nM,4.4 nM,4.4 nM,> 10000 nM,–,"CS(=O)(=O)N[C@H]1CC[C@H](CNc2nc3c(s2)CCCc2ccc(F)cc2-3)CC1 [Example 43, trans-N2-(4-Methylsulfonylamino)cyclohexylmethyl-9-fluoro-5,6-dihydro-4H-benzo[6,7]cyclohepta[d][1,3]-thiazol-2-amine]"
12.6 nM,20.1 nM,20 nM,–,–,"O=C1OCCN1C[C@H]1CC[C@H](Nc2nc3c(s2)CCCc2ccc(F)cc2-3)CC1 [Example 79, 3-({4-[(9-fluoro-5,6-dihydro-4H-benzo[6,7]cyclohepta-[d][1,3]thiazol-2-yl)amino]cyclohexyl}methyl)-1,3-oxazolan-2-one]"
2.51 nM,19.5 nM,19.5 nM,> 10000 nM,–,"O=S(=O)(NCCCCCNc1nc2c(s1)CCCc1ccc(F)cc1-2)c1cccc2ccccc12 [Example 4, 1-Aza-9-fluoro-4,5-dihydro-2-(5-(1-naphthyl)sulfonyl-amino)-pentylamino-3-thia-benzo[e]azulene]"
1.58 nM,2.3 nM,2.3 nM,> 10000 nM,180 to 182 °C,"NS(=O)(=O)N[C@H]1CC[C@H](CNc2nc3c(s2)CCCc2ccc(F)cc2-3)CC1 [Example 44, trans-N2-(4-Aminosulfonylamino)cyclohexylmethyl-9-fluoro-5,6-dihydro-4H-benzo[6,7]cyclohepta[d][1,3]-thiazol-2-amine]"
3.16 nM,4.5 nM,4.5 nM,> 10000 nM,–,"O=S(=O)(NCCCCCNc1nc2c(s1)CCCc1ccc(F)cc1-2)c1ccccc1F [Example 3, 1-Aza-9-fluoro-2-(5-(2-fluorophenyl)sulfonylamino)-pentylamino-4,5-dihydro-3-thia-benzo[e]azulene]"
7.94 nM,15.3 nM,15.3 nM,–,64 to 67 °C,"CS(=O)(=O)N[C@H]1CC[C@H](CNc2nc3c(s2)CCOc2ccccc2-3)CC1 [Example 50, trans-N2-(4-Methylsulfonylamino)cyclohexylmethyl-4,5-dihydro-benzo[2,3]oxepino[4,5-d][1,3]thiazol-2-amine]"
12.6 nM,2.1 nM,2.1 nM,> 10000 nM,60 to 65 °C,"CN(C)S(=O)(=O)NC[C@H]1CC[C@H](Nc2nc3c(s2)CCCc2ccc(F)cc2-3)CC1 [Example 1, trans-N2-(4-Dimethylaminosulfonylaminomethyl)-cyclohexyl-9-fluoro-5,6-dihydro-4H-benzo[6,7]-cyclohepta[d][1,3]-thiazol-2-amine]"
3.16 nM,6.4 nM,6.4 nM,> 10000 nM,–,"CS(=O)(=O)NC[C@H]1CC[C@H](Nc2nc3c(s2)CCCc2ccc(F)cc2-3)CC1 [Example 11, trans-1-Aza-9-fluoro-4,5-dihydro-2-(4-(methyl-sulfonylamino-methyl)cyclohexyl)amino-3-thia-benzo[e]azulene]"
63.1 nM,33.5 nM,34 nM,–,179 to 181 °C,"CS(=O)(=O)N[C@H]1CC[C@H](Nc2nc3c(s2)CCCc2ccc(F)cc2-3)CC1 [Example 34, trans-1-Aza-9-fluoro-4,5-dihydro-2-(4-methyl-sulfonylamino)-cyclohexylamino-3-thia-benzo[e]azulene]"
2.51 nM,3.2 nM,3.2 nM,–,–,"COc1ccc(C)cc1S(=O)(=O)NCCCCCNc1nc2c(s1)CCCc1ccc(F)cc1-2 [Example 15, 1-Aza-9-fluoro-4,5-dihydro-2-(5-(2-methoxy-5-methyl-phenyl)sulfonylamino)pentylamino-3-thia-benzo[e]-azulene]"
5.01 nM,0.3 nM,5.8 nM,> 10000 nM,–,"O=S(=O)(CC(F)(F)F)NCCCCCNc1nc2c(s1)CCCc1ccc(F)cc1-2 [Example 20, 1-Aza-9-fluoro-2-(5-(2-trifluoroethyl)sulfonylamino)-pentylamino-4,5-dihydro-3-thia-benzo [e]azulene]"
